{"source": "patent US20260159528A1", "about": "“HETEROCYCLIC COMPOUNDS AS TRIGGERING RECEPTOR EXPRESSED ON MYELOID CELLS 2 AGONISTS AND METHODS OF USE” (Vigil Neuroscience, Inc., priority 2021, published 2026)"}
{"target": "T1, human TREM2 (Homo sapiens, UniProt Q9NZC2)", "T1 construct": "expressed in transfected cells; host or cells: HEK293T", "T1 sequence (Q9NZC2 19-230)": "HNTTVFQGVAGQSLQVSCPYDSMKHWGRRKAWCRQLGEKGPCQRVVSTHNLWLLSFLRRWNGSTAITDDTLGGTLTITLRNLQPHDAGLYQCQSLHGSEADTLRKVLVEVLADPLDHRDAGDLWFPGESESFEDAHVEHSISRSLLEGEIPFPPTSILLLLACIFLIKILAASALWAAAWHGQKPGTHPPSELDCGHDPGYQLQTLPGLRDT", "T1 sequence (O43914 22-113 partner)": "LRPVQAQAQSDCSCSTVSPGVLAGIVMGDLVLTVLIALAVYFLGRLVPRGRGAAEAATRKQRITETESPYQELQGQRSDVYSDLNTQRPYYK", "experiment": "TREM2 agonist potency by cellular Syk phosphorylation (AlphaLisa) in HEK293T-hTREM2 cells", "format": "cell-based", "details": "Table D-2; HEK293 cells expressing human TREM2 and DAP12; pSyk AlphaLisa", "description": "In vitro Measurement of Triggering Receptor Expressed on Myeloid Cells 2 activity using cellular phosphorylation of Spleen Tyrosine Kinase (“Syk”) Assays\nMeasurement of TREM2 agonist potency was done using a HEK cell line expressing human TREM2 and DAP12 (HEK293T-hTREM2 cells). Binding of small molecules to, and activation of, TREM2 increases the phosphorylation of Syk. The resultant levels of Syk phosphorylation are measured using a commercial AlphaLisa reagent kit. To perform the assay, HEK-hTREM2 cells were plated at 14,000 cells per well in a 384 well plate, in 25 µL of complete growth media and incubated at 37° C., 5% CO2 for 20-24 hours.\nPrior to the assay, test compounds were diluted in the 384 well plates in assay buffer and allowed to equilibrate for 30 minutes. Growth media was removed from cell plates by inversion on blotting paper, and 25 μL of test articles in assay buffer was added to cells. Cells were incubated for 45 minutes at room temperature. After 45 minutes, assay buffer was removed and 10 μL of lysis buffer was added. Plates were shaken for 20 minutes at 350 RPM at room temperature. After complete lysis, AlphaLisa reagents were added to the lysate, and fluorescence intensity was measured using a Perkin Elmer Envision plate reader. Intensities were used to generate a standard curve, and % activation was calculated. Curve fitting was performed using Prism v9 software, log(agonist) vs response—variable slope (four parameters), and EC50s were calculated from the curve fit.\nThe results presented in Table D have been generated with the in vitro assay described above. This assay may be used to test any of the compounds described herein to assess and characterize a compound's ability to act as an agonist of TREM2.", "units": {"EC50": "µM"}}
{"molecule": "CO[C@H]1CCN(c2nc3nc(N4C[C@@H](C)O[C@@H](c5cnn(C6CC6)c5)C4)nc(-c4ccc(F)cc4F)c3s2)C1", "note": "[Compound I-224, (2S,6R)-2-(1-cyclopropylpyrazol-4-yl)-4-[7-(2,4-difluorophenyl)-2-[(3S)-3-methoxypyrrolidin-1-yl]thiazolo[4,5-d]pyrimidin-5-yl]-6-methyl-morpholine]", "EC50": "≤ 0.05"}
{"molecule": "C[C@@H]1CN(c2nc(-c3ccc(Cl)cc3F)c3sc(N(C)CCF)nc3n2)C[C@H](c2cnn(C3CC3)c2)O1", "note": "(single isomer, unassigned) [Compound I-114]", "EC50": "0.05 to 0.5"}
{"molecule": "CO[C@@H]1CCN(c2nc3nc(N4C[C@@H](C)O[C@@H](c5cnn(C6CC6)c5)C4)nc(-c4ccc(F)cc4F)c3s2)C1", "note": "[Compound I-221, (2S,6R)-2-(1-cyclopropyl-1H-pyrazol-4-yl)-4-(7-(2,4-difluorophenyl)-2-((R)-3-methoxypyrrolidin-1-yl)thiazolo[4,5-d]pyrimidin-5-yl)-6-methylmorpholine]", "EC50": "≤ 0.05"}
{"molecule": "C[C@@H]1CN(c2nc(-c3ccc(Cl)cc3F)c3sc(N(C)CC4CC4)nc3n2)C[C@H](c2cnn(C3CC3)c2)O1", "note": "[Compound I-109, 7-(4-chloro-2-fluoro-phenyl)-N-(cyclopropylmethyl)-N-methyl-5-[(2S,6R)-2-(1-cyclopropylpyrazol-4-yl)-6-methyl-morpholin-4-yl]thiazolo[4,5-d]pyrimidin-2-amine]", "EC50": "0.05 to 0.5"}
